Test system: lentiviral vector particles pseudotyped with the HIV-1 JRFL envelope glycoprotein
Experiment: Single-round infection assay
Assay type: cell-based
Details: PM-1 cells; supernatants of transfected HEK 293T cells; eGFP positive cells by flow cytometry
Procedure: Virus production and titration: Viral vector supernatants were produced in HEK 293T cells. 6×10^6 cells were plated on 9.4 cm dishes 24 h prior to transfection. For transfection, the medium was changed and 25 μM chloroquine was added. 7.5 μg retroviral vector DNA was transfected by the calcium phosphate precipitation method. To generate GaLV pseudotyped retroviral particles 2 μg pALF-GaLV CM (GaLV CM expression plasmid; Stitz et al., Virology 2000) and 12.5 μg M57-DAW (MuLV gag/pol expression plasmid; Schambach et al., Gene Ther 2006) were transfected in addition. For the production of lentiviral vectors encoding eGFP, and pseudotyped with the HIV-1 JRFL envelope glycoprotein 7.5 μg pHR′SIN-cPPT-SEW-new (SIN lentiviral vector encoding eGFP), 12.5 μg pCMV-dR8.91 (lentiviral gag/pol expression plasmid), and 1 μg M118 (HIV-1 JRFL expression plasmid) were co-transfected. Medium was changed after 6-8 h incubation. […] In the case of lentiviral vectors expressing eGFP, vector titers were determined by transducing predefined numbers of PM-1 cells with serial dilutions of vector supernatant and analyzing the percentage of eGFP positive cells by flow cytometry. For retroviral vectors expressing secreted peptides transduced cells were analyzed by intracellular immunostaining for the peptide of interest. […]

## WQQWERQVRFLDANITKLLEEAQIQQEKNMYELQELDKWASLWNWF [C46-EHO]
  antiviral (inhibitory) activity of supernatants containing secreted peptides: slightly reduced
